From PubChem BioAssay AID1963437 (Molecular Pharmacology Branch, DTP, NCI, 2024)

Tested on: OVCAR-8 complex spheroid, growth inhibition
Test: Anticancer human tumor OVCAR-8 cell line growth inhibition [Asc];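 further: spheroids exposed to agents for 7 days before readout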;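 on viability, T/C: percent viability relative to DMSO vehicle wells taken as 100%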
Conditions: for IC50: curve of first compound; for viability, T/C: stronger effect = lower value
In short: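 Tumor cells were grown as multicellular spheroids with stromal HUVEC and mesenchymal stem cells and treated singly or in combination. Concentrations fell in half-log steps from the clinical Cmax, or from 10 microM where none was known.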

[1] = second compound 0.00949 µM, first compound 0.0316 µM
[2] = second compound 0.00949 µM, first compound 0.1 µM
[3] = second compound 0.00949 µM, first compound 0.316 µM
[4] = second compound 0.00949 µM, first compound 1 µM
[5] = second compound 0.00949 µM, first compound 3.16 µM
[6] = second compound 0.00949 µM, first compound 10 µM
[7] = second compound 0.03 µM, first compound 0.0316 µM
[8] = second compound 0.03 µM, first compound 0.1 µM
[9] = second compound 0.03 µM, first compound 0.316 µM
[10] = second compound 0.03 µM, first compound 1 µM
[11] = second compound 0.03 µM, first compound 3.16 µM
[12] = second compound 0.03 µM, first compound 10 µM
[13] = second compound 0.0949 µM, first compound 0.0316 µM
[14] = second compound 0.0949 µM, first compound 0.1 µM
[15] = second compound 0.0949 µM, first compound 0.316 µM
[16] = second compound 0.0949 µM, first compound 1 µM
[17] = second compound 0.0949 µM, first compound 3.16 µM
[18] = second compound 0.0949 µM, first compound 10 µM
[19] = second compound 0.3 µM, first compound 0.0316 µM
[20] = second compound 0.3 µM, first compound 0.1 µM
[21] = second compound 0.3 µM, first compound 0.316 µM
[22] = second compound 0.3 µM, first compound 1 µM
[23] = second compound 0.3 µM, first compound 3.16 µM
[24] = second compound 0.3 µM, first compound 10 µM
[25] = second compound 0.949 µM, first compound 0.0316 µM
[26] = second compound 0.949 µM, first compound 0.1 µM
[27] = second compound 0.949 µM, first compound 0.316 µM
[28] = second compound 0.949 µM, first compound 1 µM
[29] = second compound 0.949 µM, first compound 3.16 µM
[30] = second compound 0.949 µM, first compound 10 µM
[31] = second compound 3 µM, first compound 0.0316 µM
[32] = second compound 3 µM, first compound 0.1 µM
[33] = second compound 3 µM, first compound 0.316 µM
[34] = second compound 3 µM, first compound 1 µM
[35] = second compound 3 µM, first compound 3.16 µM
[36] = second compound 3 µM, first compound 10 µM

In the case of `C#Cc1c(F)ccc2cc(O)cc(-c3ncc4c(N5CC6CCC(C5)N6)nc(OCC56CCCN5CC(F)C6)nc4c3F)c12` (stereo not drawn) + CCN1C(C(=O)NC23CCC(C(=O)O)(CC2)CC3)C(c2cccc(Cl)c2F)C2(C(=O)Nc3cc(Cl)ccc32)C12CCCCC2, the IC50 (second compound 0.00949 µM) is reported as > 10000 nM, the IC50 (second compound 0.03 µM) is reported as > 10000 nM and the IC50 (second compound 0.0949 µM) is reported as > 10000 nM. For the same molecule, the IC50 (second compound 0.3 µM) was > 10000 nM, the IC50 (second compound 0.949 µM) was > 10000 nM and the IC50 (second compound 3 µM) was > 10000 nM. It also gave a viability, T/C [1] of 91.7%, a viability, T/C [2] of 86.9% and a viability, T/C [3] of 93.3%. It also gave a viability, T/C [4] of 95.2%, a viability, T/C [5] of 95.5% and a viability, T/C [6] of 89.3%. For the same molecule, the viability, T/C [7] was 114%, the viability, T/C [8] was 96.3% and the viability, T/C [9] was 85.1%. The viability, T/C [10] was 97.3%, the viability, T/C [11] was 90.1% and the viability, T/C [12] was 91.5%. The viability, T/C [13] was 93.2%, the viability, T/C [14] was 82.2% and the viability, T/C [15] was 94.4%. For the same molecule, the viability, T/C [16] was 84%, the viability, T/C [17] was 101% and the viability, T/C [18] was 101%. The viability, T/C [19] was 79.5%, the viability, T/C [20] was 86.8% and the viability, T/C [21] was 84.2%. For the same molecule, the viability, T/C [22] was 91.7%, the viability, T/C [23] was 96.5% and the viability, T/C [24] was 98.2%. The viability, T/C [25] was 93.5%, the viability, T/C [26] was 107% and the viability, T/C [27] was 90.8%. For the same molecule, the viability, T/C [28] was 92.3%, the viability, T/C [29] was 103% and the viability, T/C [30] was 107%. For the same molecule, the viability, T/C [31] was 108%, the viability, T/C [32] was 93% and the viability, T/C [33] was 105%. The viability, T/C [34] was 115%, the viability, T/C [35] was 110% and the viability, T/C [36] was 112%.
`C=C(F)C(=O)N1CCN(c2nc(OCC3CCCN3C)nc3c2CCN(c2cccc4cccc(Cl)c24)C3)CC1CC#N` (stereo not drawn) + CCN1C(C(=O)NC23CCC(C(=O)O)(CC2)CC3)C(c2cccc(Cl)c2F)C2(C(=O)Nc3cc(Cl)ccc32)C12CCCCC2 gave an IC50 (second compound 0.00949 µM) of 2580 nM, an IC50 (second compound 0.03 µM) of 2500 nM and an IC50 (second compound 0.0949 µM) of 2720 nM. It also gave an IC50 (second compound 0.3 µM) of 2660 nM, an IC50 (second compound 0.949 µM) of 2490 nM and an IC50 (second compound 3 µM) of 2740 nM. The viability, T/C [1] was 115%, the viability, T/C [2] was 86.5% and the viability, T/C [3] was 103%. For the same molecule, the viability, T/C [4] was 119%, the viability, T/C [5] was 38% and the viability, T/C [6] was 1.01%. It also gave a viability, T/C [7] of 96.6%, a viability, T/C [8] of 90.2% and a viability, T/C [9] of 92.3%. It also gave a viability, T/C [10] of 107%, a viability, T/C [11] of 38% and a viability, T/C [12] of 0.56%. For the same molecule, the viability, T/C [13] was 93.1%, the viability, T/C [14] was 98.6% and the viability, T/C [15] was 93.9%. For the same molecule, the viability, T/C [16] was 116%, the viability, T/C [17] was 42.3% and the viability, T/C [18] was 0.29%. For the same molecule, the viability, T/C [19] was 83.8%, the viability, T/C [20] was 103% and the viability, T/C [21] was 105%. It also gave a viability, T/C [22] of 121%, a viability, T/C [23] of 40.6% and a viability, T/C [24] of 0.7%. For the same molecule, the viability, T/C [25] was 90.3%, the viability, T/C [26] was 96.8% and the viability, T/C [27] was 102%. It also gave a viability, T/C [28] of 126%, a viability, T/C [29] of 35.9% and a viability, T/C [30] of 1.05%. For the same molecule, the viability, T/C [31] was 111%, the viability, T/C [32] was 97.3% and the viability, T/C [33] was 140%. The viability, T/C [34] was 128%, the viability, T/C [35] was 40.3% and the viability, T/C [36] was 0.52%.
`C=CC(=O)N1CCN(c2nc(=O)n(-c3c(C)ccnc3C(C)C)c3nc(-c4c(O)cccc4F)c(F)cc23)C(C)C1` (stereo not drawn) + CCN1C(C(=O)NC23CCC(C(=O)O)(CC2)CC3)C(c2cccc(Cl)c2F)C2(C(=O)Nc3cc(Cl)ccc32)C12CCCCC2 was tested, and the IC50 (second compound 0.00949 µM) was > 10000 nM, the IC50 (second compound 0.03 µM) was > 10000 nM and the IC50 (second compound 0.0949 µM) was > 10000 nM. The IC50 (second compound 0.3 µM) was > 10000 nM, the IC50 (second compound 0.949 µM) was > 10000 nM and the IC50 (second compound 3 µM) was > 10000 nM. The viability, T/C [1] was 94.2%, the viability, T/C [2] was 89.9% and the viability, T/C [3] was 94.7%. The viability, T/C [4] was 81.7%, the viability, T/C [5] was 89.3% and the viability, T/C [6] was 100%. The viability, T/C [7] was 101%, the viability, T/C [8] was 90.6% and the viability, T/C [9] was 85.3%. It also gave a viability, T/C [10] of 76.8%, a viability, T/C [11] of 102% and a viability, T/C [12] of 102%. It also gave a viability, T/C [13] of 101%, a viability, T/C [14] of 78.6% and a viability, T/C [15] of 88%. It also gave a viability, T/C [16] of 74.2%, a viability, T/C [17] of 86.1% and a viability, T/C [18] of 116%. The viability, T/C [19] was 88%, the viability, T/C [20] was 96.7% and the viability, T/C [21] was 86.3%. For the same molecule, the viability, T/C [22] was 93.7%, the viability, T/C [23] was 88.2% and the viability, T/C [24] was 106%. It also gave a viability, T/C [25] of 87.3%, a viability, T/C [26] of 103% and a viability, T/C [27] of 102%. For the same molecule, the viability, T/C [28] was 90.8%, the viability, T/C [29] was 104% and the viability, T/C [30] was 115%. It also gave a viability, T/C [31] of 124%, a viability, T/C [32] of 103% and a viability, T/C [33] of 101%. For the same molecule, the viability, T/C [34] was 106%, the viability, T/C [35] was 120% and the viability, T/C [36] was 137%.
In the case of `CNC(C)C(=O)NC1CN(S(=O)(=O)c2cccc(S(=O)(=O)N3CCC4CCC(C(=O)NC(c5ccccc5)c5ccccc5)N4C(=O)C(NC(=O)C(C)NC)C3)c2)CCC2CCC(C(=O)NC(c3ccccc3)c3ccccc3)N2C1=O` (stereo not drawn) + CCN1C(C(=O)NC23CCC(C(=O)O)(CC2)CC3)C(c2cccc(Cl)c2F)C2(C(=O)Nc3cc(Cl)ccc32)C12CCCCC2, the IC50 (second compound 0.00949 µM) is reported as > 1000 nM, the IC50 (second compound 0.03 µM) is reported as > 1000 nM and the IC50 (second compound 0.0949 µM) is reported as > 1000 nM. For the same molecule, the IC50 (second compound 0.3 µM) was > 1000 nM, the IC50 (second compound 0.949 µM) was > 1000 nM and the IC50 (second compound 3 µM) was > 1000 nM. For the same molecule, the viability, T/C (second compound 0.00949 µM, first compound 0.00316 µM) was 100%, the viability, T/C (second compound 0.00949 µM, first compound 0.01 µM) was 83.8% and the viability, T/C [1] was 91.8%. For the same molecule, the viability, T/C [2] was 76.4%, the viability, T/C [3] was 75.4% and the viability, T/C [4] was 71.3%. It also gave a viability, T/C (second compound 0.03 µM, first compound 0.00316 µM) of 107%, a viability, T/C (second compound 0.03 µM, first compound 0.01 µM) of 99.3% and a viability, T/C [7] of 94%. For the same molecule, the viability, T/C [8] was 88.8%, the viability, T/C [9] was 75% and the viability, T/C [10] was 83.3%. The viability, T/C (second compound 0.0949 µM, first compound 0.00316 µM) was 94.7%, the viability, T/C (second compound 0.0949 µM, first compound 0.01 µM) was 98.1% and the viability, T/C [13] was 90.9%. For the same molecule, the viability, T/C [14] was 79%, the viability, T/C [15] was 74.4% and the viability, T/C [16] was 63.6%. It also gave a viability, T/C (second compound 0.3 µM, first compound 0.00316 µM) of 112%, a viability, T/C (second compound 0.3 µM, first compound 0.01 µM) of 101% and a viability, T/C [19] of 86.7%. The viability, T/C [20] was 65.9%, the viability, T/C [21] was 68.6% and the viability, T/C [22] was 70.1%. The viability, T/C (second compound 0.949 µM, first compound 0.00316 µM) was 91.7%, the viability, T/C (second compound 0.949 µM, first compound 0.01 µM) was 89.1% and the viability, T/C [25] was 99%. It also gave a viability, T/C [26] of 76.7%, a viability, T/C [27] of 64.3% and a viability, T/C [28] of 66.8%. The viability, T/C (second compound 3 µM, first compound 0.00316 µM) was 118%, the viability, T/C (second compound 3 µM, first compound 0.01 µM) was 102% and the viability, T/C [31] was 115%. The viability, T/C [32] was 88%, the viability, T/C [33] was 84.5% and the viability, T/C [34] was 88%.
